The values that follow come from patent US11992481B2, “Use of 2-substituted indazoles for the treatment and prophylaxis of autoimmune diseases” (Bayer Pharma Aktiengesellschaft, priority 2016, dated 2024).

The test deals with THP-1 cells. Put plainly: TNF-α secretion in THP-1 cells (LPS-triggered). Format: cell-based. To be noted: Homo sapiens, 0.05 μg/ml LPS, 17 h, read-out: IC50 with respect to the secretion of TNF-α in THP-1 cells. As to the method:
With the aid of this test, it is possible to test substances for their ability to inhibit secretion of TNF-α (tumour necrosis factor alpha) in THP-1 cells (human monocytic acute leukaemia cell line). […] In this test, TNF-α secretion is triggered by incubation with bacterial lipopolysaccharide (LPS).
The cells were incubated at room temperature for 15 min. 2-2.5 μl of 0.1 μg/ml LPS (Sigma, Escherichia coli 055:B5, Cat. No. L5418) dissolved in cell culture medium (final concentration 0.05 μg/ml) were then dispensed into each well. As neutral control, cells were treated with 0.05 μg/ml LPS and 1% DMSO and, as inhibitor control, with 1% DMSO only.
The amount of TNF-α was determined using the TNF-alpha HTRF Detection Kit (Cisbio, Cat. No. 62TNFPEB/C). To this end, 2 μl of the detection solution in each case, consisting of anti-TNF-α-XL665 conjugate and anti-TNF-α-cryptate conjugate dissolved in the reconstitution buffer in accordance with the manufacturer's instructions, were added for the HTRF (Homogeneous Time-Resolved Fluorescence) test. After the addition, the mixture was incubated either at room temperature for 3 h or at 4° C. overnight.
The activity of the substances is expressed as the ratio between neutral and inhibitor control in percent. The IC50 values were calculated using a 4-parameter fit.
In the case of `COCCn1cc2cc(NC(=O)c3cccc(C(F)(F)F)n3)c(CO)cc2n1` [Example 2, N-[6-(Hydroxymethyl)-2-(2-methoxyethyl)-2H-indazol-5-yl]-6-(trifluoromethyl)pyridine-2-carboxamide], the half-maximal inhibitory concentration (IC50) came out at 15100 pM.

Turning to `O=C(Nc1cc2cn(CCO)nc2cc1CO)c1cccc(C(F)(F)F)n1` [Example 7, N-[2-(2-Hydroxyethyl)-6-(hydroxymethyl)-2H-indazol-5-yl]-6-(trifluoromethyl)pyridine-2-carboxamide], the half-inhibitory concentration (IC50) came to 16400 pM.

Regarding `CC(C)(O)c1cc2nn(CC3COC3)cc2cc1NC(=O)c1cccc(C(F)(F)F)n1` [Example 8, N-[6-(2-Hydroxypropan-2-yl)-2-(oxetan-3-ylmethyl)-2H-indazol-5-yl]-6-(trifluoromethyl)pyridine-2-carboxamide], the IC50 was determined as 1000 pM.

`CC(C)(O)c1cc2nn(CCCOC(F)(F)F)cc2cc1NC(=O)c1cccc(C(F)(F)F)n1` [Example 17, N-{6-(2-Hydroxypropan-2-yl)-2-[3-(trifluoromethoxy)propyl]-2H-indazol-5-yl}-6-(trifluoromethyl)pyridine-2-carboxamide]: the IC50 was 500 pM.

In the case of `CC(C)(O)c1cc2nn(CCCO)cc2cc1NC(=O)c1cccc(C(F)F)n1` [Example 15, 6-(Difluoromethyl)-N-[6-(2-hydroxypropan-2-yl)-2-(3-hydroxypropyl)-2H-indazol-5-yl]pyridine-2-carboxamide], the IC50 stood at 200 pM.

For the compound `CC(C)(O)c1cc2nn(CCS(C)(=O)=O)cc2cc1NC(=O)c1cccc(C(F)F)n1` [Example 14, 6-(Difluoromethyl)-N-{6-(2-hydroxypropan-2-yl)-2-[2-(methylsulphonyl)ethyl]-2H-indazol-5-yl}pyridine-2-carboxamide], the 50% inhibitory concentration (IC50) worked out at 200 pM.

For the compound `COCCn1cc2cc(NC(=O)c3cccc(C(F)(F)F)n3)c(C(C)(C)O)cc2n1` [Example 1, N-[6-(2-Hydroxypropan-2-yl)-2-(2-methoxyethyl)-2H-indazol-5-yl]-6-(trifluoromethyl)pyridine-2-carboxamide], the half-maximal inhibitory concentration (IC50) was 1000 pM.

As for `CC(C)(O)CCn1cc2cc(NC(=O)c3cccc(C(F)F)n3)c(C(C)(C)O)cc2n1` [Example 13, 6-(Difluoromethyl)-N-[2-(3-hydroxy-3-methylbutyl)-6-(2-hydroxypropan-2-yl)-2H-indazol-5-yl]pyridine-2-carboxamide], the IC50 came out at 100 pM.

Regarding `COCCCn1cc2cc(NC(=O)c3cccc(C(F)(F)F)n3)c(CO)cc2n1` [Example 4, N-[6-(Hydroxymethyl)-2-(3-methoxypropyl)-2H-indazol-5-yl]-6-(trifluoromethyl)pyridine-2-carboxamide], the IC50 stood at 5600 pM.

Take `CC(C)(O)c1cc2nn(CCCOCC(F)(F)F)cc2cc1NC(=O)c1cccc(C(F)(F)F)n1` [Example 18, N-{6-(2-Hydroxypropan-2-yl)-2-[3-(2,2,2-trifluoroethoxy)propyl]-2H-indazol-5-yl}-6-(trifluoromethyl)pyridine-2-carboxamide]: the half-inhibitory concentration (IC50) was 300 pM.

Take `CC(C)(O)c1cccc(C(=O)Nc2cc3cn(CCCC(F)(F)F)nc3cc2C(C)(C)O)n1` [Example 21, 6-(2-Hydroxypropan-2-yl)-N-[6-(2-hydroxypropan-2-yl)-2-(4,4,4-trifluorobutyl)-2H-indazol-5-yl]pyridine-2-carboxamide]: the IC50 came to 1800 pM.

Regarding `Cc1nc(C(=O)Nc2cc3cn(CCC(C)(C)O)nc3cc2C(C)(C)O)ccc1F` [Example 19, 5-Fluoro-N-[2-(3-hydroxy-3-methylbutyl)-6-(2-hydroxypropan-2-yl)-2H-indazol-5-yl]-6-methylpyridine-2-carboxamide], the half-maximal inhibitory concentration (IC50) was 100 pM.

Regarding `CC(C)(O)c1cc2nn(CCCC(F)(F)F)cc2cc1NC(=O)c1cccc(C(F)(F)F)n1` [Example 16, N-[6-(2-Hydroxypropan-2-yl)-2-(4,4,4-trifluorobutyl)-2H-indazol-5-yl]-6-(trifluoromethyl)pyridine-2-carboxamide], the IC50 turned out to be 200 pM.

For `CC(C)(O)c1cc2nn(CCCS(C)(=O)=O)cc2cc1NC(=O)c1cccc(C(F)(F)F)n1` [Example 10, N-{6-(2-Hydroxypropan-2-yl)-2-[3-(methylsulphonyl)propyl]-2H-indazol-5-yl}-6-(trifluoromethyl)pyridine-2-carboxamide], the IC50 worked out at 1000 pM.

With `O=C(Nc1cc2cn(CC3COC3)nc2cc1CO)c1cccc(C(F)(F)F)n1` [Example 9, N-[6-(Hydroxymethyl)-2-(oxetan-3-ylmethyl)-2H-indazol-5-yl]-6-(trifluoromethyl)pyridine-2-carboxamide], the IC50 is 6500 pM.

Turning to `CC(C)(O)c1cc2nn(CCO)cc2cc1NC(=O)c1cccc(C(F)(F)F)n1` [Example 5, N-[2-(2-Hydroxyethyl)-6-(2-hydroxypropan-2-yl)-2H-indazol-5-yl]-6-(trifluoromethyl)pyridine-2-carboxamide], the half-inhibitory concentration (IC50) was 5400 pM.

For `CC(C)(O)c1cc2nn(CCCO)cc2cc1NC(=O)c1cccc(C(F)(F)F)n1` [Example 6, N-[6-(2-Hydroxypropan-2-yl)-2-(3-hydroxypropyl)-2H-indazol-5-yl]-6-(trifluoromethyl)pyridine-2-carboxamide], the 50% inhibitory concentration (IC50) worked out at 900 pM.

`Cc1cccc(C(=O)Nc2cc3cn(CCC(C)(C)O)nc3cc2C(C)(C)O)n1` [Example 20, N-[2-(3-Hydroxy-3-methylbutyl)-6-(2-hydroxypropan-2-yl)-2H-indazol-5-yl]-6-methylpyridine-2-carboxamide]: the IC50 stood at 200 pM.

By IC50 is commonly meant the concentration at which inhibition is half-maximal.
